≈ marks a conversion by molar mass, not a printed value.
Tests used:
Assay type in all cases: functional, H37Rv
Conditions in all cases: time 7-14 day
[1] = test system: Mycobacterium tuberculosis
[2] = test system: Mycobacterium tuberculosis; remark: listed apart in the source
[3] = test system: Mycobacterium tuberculosis; remark: listed apart in the source
[4] = test system: Mycobacterium tuberculosis; remark: listed apart in the source

| SMILES | MIC [1] [µM] | MIC [2] [µM] | MIC [3] [µM] | MIC [4] [µM] |
| --- | --- | --- | --- | --- |
| CCNc1cc(C)nn1-c1nc(-c2cccnc2)cc(=O)[nH]1 | 41 (≈ 12.1 µg/mL) | 5.5 (≈ 1.63 µg/mL) | – | – |
| Cc1cc(C)n(-c2nc(O)cc(-c3ccccc3)n2)n1 | 18 (≈ 4.79 µg/mL) | 1.9 (≈ 0.506 µg/mL) | 40 (≈ 10.7 µg/mL) | 16 (≈ 4.26 µg/mL) |
| Cc1cc(C)n(-c2nc(C(F)(F)F)cc(=O)[nH]2)n1 | 170 (≈ 43.9 µg/mL) | 17 (≈ 4.39 µg/mL) | – | – |
| Cc1cc(Nc2ccc(F)cc2)n(-c2nc(C(F)(F)F)cc(=O)[nH]2)n1 | – | 1 (≈ 0.353 µg/mL) | – | – |
| Cc1ccc(Nc2cc(C)nn2-c2nc(C)cc(O)n2)cc1 | 55 (≈ 16.2 µg/mL) | 5.4 (≈ 1.59 µg/mL) | 110 (≈ 32.5 µg/mL) | 45 (≈ 13.3 µg/mL) |
| CC(=O)Nc1cc(C)nn1-c1nc(-c2ccccc2)cc(=O)[nH]1 | – | 24 (≈ 7.42 µg/mL) | – | – |
| COCCNc1cc(C)nn1-c1nc(C(F)(F)F)cc(=O)[nH]1 | 39 (≈ 12.4 µg/mL) | 1.9 (≈ 0.603 µg/mL) | – | – |
